Reference: patent US4208426A, “Pyranochromone derivatives and therapeutic composition comprising same for treatment of allergic diseases” (Eisai Co., Ltd., priority 1977, dated 1980)

What was measured:
[1] = tested on: homologous PCA reaction; experiment: Homologous passive cutaneous anaphylaxis (PCA) reaction; type: in vivo, rat (SD (Sprague-Dawley) strain); settings: rat; for Inhibition effect of PCA reaction: oral
Description: Anti-egg albumin rat serum in amount of 0.1 ml was intracutaneously injected to the shaved back of a mail rat of SD (Sprague-Dawley) strain weighing 200±30 g. The egg-albumin as antigen in amount of 5 mg/Kg were intravenously injected, together with 40 mg/Kg of dye (Evans blue) 24 hours after antiserum injection. The test materials were given at the respective times before antigen injection as 5% suspension in gum arabic in the case of oral administration (p. o.), while as a solution in physiological salt solution in the case of the intravenous injection (i. v.). The rat was sacrificed 30 minutes after the injection of the antigen, and the skin was removed. The amount of the dye leaked at the reaction locus was measured by extraction method according to Katayama et al.; Microbiol. Immunol. 22, 89-101 (1978), to determine the inhibiting rate on the homologous PCA reaction. There were elected, as the control, cromoglycate and ethyl 6,7-dihydro-6-methyl-8H-pyrano[3,2-g]chromone-2-carboxylate which are known in the art.
Regarding 6,7-dihydro-6,8,8,10-tetramethyl-8H-pyrano[3,2-g] chromone-2-carboxylic acid of this invention, there were determined, in the same manner, inhibition effect of PCA reaction when oral administration was carried out.

[2] = tested on: actively sensitized rat peritoneal mast cells; experiment: Histamine release from actively sensitized rat peritoneal mast cells mediated by antigen-antibody reaction; type: cell-based, rat (SD strain); settings: Mast cell, egg-albumine 10 μg/ml, 37° C., read-out: Inhibition rate of histamine release
Description: (2) Histamine release from actively sensitized rat peritoneal mast cells mediated by antigen-antibody reaction
A male rate of SD strain weighing 200-400 g was used in this experiment. The sensitization of rats was performed by the method according to Kusner et al.; J. Pharmcol. & Exper. Ther, 184, 41-44 (1973). The mast cells were isolated 14 days after the sensitization by the method according to Johnson, et al.; Am. J. Physiol. 216, 453-459 (1969). The number of the mast cells was adjusted to 2×10^5 /ml. Each one milliliter of the cell suspension was divisionally poured into siliconized test tubes, and placed in an incubator adjusted to 37° C. The egg-albumine, as antigen, was added thereto at the final concentration of 10 μg/ml. At the same time of the addition of antigen, there is added sodium 6,7-dihydro-6,8,8,10-tetramethyl-8H-pyrano[3,2-g] chromone-2-carboxylate according to this invention in the respective concentrations.
The amount of histamine released from the mast cells was determined fluorimetrically according to Suzuki's method [Keio Igaku, 50, 263-270 (1973) Japan].

[3] = cited from earlier work

Cc1c2c(cc3c(=O)cc(C(=O)O)oc13)C(C)CC(C)(C)O2 (stereo not shown) [6,7-Dihydro-6,8,8,10-tetramethyl-8H-pyrano [3,2-g] chromone-2-carboxylic acid]
Inhibition effect of PCA reaction, dose dependence ([1]; oral administration): dose-dependent inhibiting effect | Time of administration before antigen with the most remarkable inhibition effect of PCA reaction ([1]; oral administration): 15 to 30 min | Inhibition effect of PCA reaction ([1]; 1 mg/Kg, before 5 minutes): 15.1% | Inhibition effect of PCA reaction ([1]; 3 mg/Kg, before 5 minutes): 54.8% | Inhibition effect of PCA reaction ([1]; 10 mg/Kg, before 2 minutes): 44.1% | Inhibition effect of PCA reaction ([1]; 10 mg/Kg, before 5 minutes (dose series)): 78.5% | Inhibition effect of PCA reaction ([1]; 10 mg/Kg, before 5 minutes (time-course series)): 62.2% | Inhibition effect of PCA reaction ([1]; 10 mg/Kg, before 15 minutes): 82.0% | Inhibition effect of PCA reaction ([1]; 10 mg/Kg, before 30 minutes): 84.3% | Inhibition effect of PCA reaction ([1]; 10 mg/Kg, before 60 minutes): 54.3% | Inhibition effect of PCA reaction ([1]; 30 mg/Kg, before 5 minutes): 90.3%

CCOC(=O)c1cc(=O)c2cc3c(cc2o1)OCCC3C (stereo not shown) [ethyl 6,7-dihydro-6-methyl-8H-pyrano[3,2-g]chromone-2-carboxylate, reference compound]
Inhibition rate of PCA reaction ([1]; 20 mg/Kg p.o., before one hour): 23.7%

Cc1c2c(cc3c(=O)cc(C(=O)O)oc13)C(C)CC(C)(C)O2 (stereo not shown) [Sodium 6,7-dihydro-6,8,8,10-tetramethyl-8H-pyrano [3,2-g] chromone-2-carboxylate]
inhibition at 0.2 µM ([2]; 0.2 μM): 48.2% | inhibition at 1 µM ([2]; 1.0 μM): 66.1% | inhibition at 2 µM ([2]; 2.0 μM): 73.2% | inhibition at 10 µM ([2]; 10.0 μM): 60.7% | Inhibition rate of PCA reaction ([1]; 0.4 mg/Kg i.v., at the same time): 65.2% | Inhibition rate of PCA reaction ([1]; 20 mg/Kg p.o., before one hour): 64.9%

CCOC(=O)c1cc(=O)c2cc3c(c(OC)c2o1)OC(C)(C)CC3C (stereo not shown) [Ethyl 6,7-dihydro-10-methoxy-6,8,8-trimethyl-8H-pyrano [3,2-g] chromone-2-carboxylate]
Inhibition rate of PCA reaction ([1]; 20 mg/Kg p.o., before one hour): 62.2%

CCOC(=O)c1cc(=O)c2c(C)c3c(c(CC)c2o1)OC(C)(C)CC3C (stereo not shown) [Ethyl 6,7-dihydro-10-ethyl-5,6,8,8-tetramethyl-8H-pyrano[3,2-g]chromone-2-carboxylate]
Inhibition rate of PCA reaction ([1]; 20 mg/Kg p.o., before one hour): 64.4%

O=C(O)c1cc(=O)c2c(OCC(O)COc3cccc4oc(C(=O)O)cc(=O)c34)cccc2o1 [Chromoglycate, reference compound]
Effect on oral administration [3]: not effective when it is orally administered | Inhibition rate of PCA reaction ([1]; 6 mg/Kg i.v., at the same time): 88.6% | Inhibition rate of PCA reaction ([1]; 20 mg/Kg p.o., before one hour): 0%

CCOC(=O)c1cc(=O)c2cc3c(c(C)c2o1)OC(C)(C)CC3C (stereo not shown) [Ethyl 6,7-dihydro-6,8,8,10-tetramethyl-8H-pyrano [3,2-g] chromone-2-carboxylate]
Inhibition rate of PCA reaction ([1]; 20 mg/Kg p.o., before one hour): 63.8%

CCOC(=O)c1cc(=O)c2c(C)c3c(c(C)c2o1)OC(C)(C)C(C)C3 (stereo not shown) [Ethyl 6,7-dihydro-5,7,8,8,10-pentamethyl-8H-pyrano[3,2-g]chromone-2-carboxylate]
Inhibition rate of PCA reaction ([1]; 20 mg/Kg p.o., before one hour): 47.9%
